Test results taken from PMC3149978 (Clinical cancer research : an official journal of the …, 2011).
Like-named read-outs stand apart in the source and are kept apart here.

Tests used:
[1] = human, in vivo
[2] = Extended pharmacokinetic sampling after the first dose
[3] = in vivo, po
clinical = conditions: human, in vivo, 20 mg/m2
endoglin = experiment: Plasma angiogenic biomarker ELISA, baseline vs day 28 of cycle 1; assay type: in vivo, human; conditions: baseline to day 28 of cycle 1; 12 patients; p = 0.01
refractory solid tumors = experiment: Tumor response evaluated by RECIST; assay type: in vivo, human
VEGF = experiment: Plasma angiogenic biomarker ELISA, baseline vs day 28 of cycle 1; assay type: in vivo, human; conditions: baseline to day 28 of cycle 1; 12 patients; p = 0.002
[4] = system: Circulating endothelial cells (CECs) and endothelial progenitor cells (CEPs); experiment: Circulating endothelial cells and progenitor cells by flow cytometry; assay type: in vivo, human; conditions: 11 patients with paired baseline and day 28 samples
adult patients = conditions: cited from earlier work
[5] = system: stromal cell -derived factor-1 (SDF-1); experiment: Plasma angiogenic biomarker ELISA, baseline vs day 28 of cycle 1; assay type: in vivo, human; conditions: baseline to day 28 of cycle 1; 12 patients
[6] = system: pediatric patients with refractory solid tumors; experiment: Phase I dose escalation and toxicity evaluation; assay type: in vivo, human
monocyte counts = experiment: Absolute monocyte counts, day 1 vs day 28; assay type: in vivo, human
[7] = system: placental growth factor (PlGF); experiment: Plasma angiogenic biomarker ELISA, baseline vs day 28 of cycle 1; assay type: in vivo, human; conditions: baseline to day 28 of cycle 1; 12 patients; p = 0.0003
[8] = Steady-state trough plasma concentrations in cycle 1
[9] = dose level 15 g/m^2 (so in the source), N = 8
[10] = 17 patients with decreases, day 1 to day 28

SMILES: CCNCCNC(=O)c1c(C)[nH]c(/C=C2\C(=O)Nc3ccc(F)cc32)c1C [SU12662]
- Tmax, Max [1]: 48.7 h
- Tmax, Median [1]: 8.0 h
- Tmax, Min [1]: 4.0 h
- Cmax ([1]; 20 mg/m2): 5.3 ng/mL
- Tmax ([1]; 20 mg/m2): 8.0 h
- AR (accumulation ratio = Css/C24h) ([2]; dose level 20 mg/m^2, N = 1): 4.2
- AR (accumulation ratio = Css/C24h), Max [2, 9]: 11.1
- AR (accumulation ratio = Css/C24h), Median [2, 9]: 6.4
- AR (accumulation ratio = Css/C24h), Min [2, 9]: 3.4
- steady state plasma concentrations reached by [3]: ≤ 7 days

SMILES: CCN(CC)CCNC(=O)c1c(C)[nH]c(/C=C2\C(=O)Nc3ccc(F)cc32)c1C [Sunitinib]
- Cmax (clinical): 26.3 ng/mL
- AUC0-48h [1]: 0.698 ng·h/mL
- AUC0-48h, Median [1]: 0.492 ng·h/mL
- AUC0-∞ [1]: 0.879 ng·h/mL
- AUC0-∞, Median [1]: 0.747 ng·h/mL
- Tmax, Max [1]: 48.0 h
- Tmax, Min [1]: 2.0 h
- median peak plasma concentration [1]: 16.8 ng/mL
- peak plasma concentration, range [1]: 9.5 to 61.4 ng/mL
- time at which median peak plasma concentration was achieved [1]: 7 h
- change in plasma endoglin concentration (endoglin): decreased significantly
- objective responses (refractory solid tumors; 17 patients evaluable for response): No objective responses were observed
- patients with best response of stable disease (refractory solid tumors; diffuse pontine glioma (2 cycles), osteosarcoma (4 cycles), epithelioid sarcoma (9 cycles), ganglioglioma (9 cycles)): Four patients
- 123I-meta-iodobenzylguanidine scan finding (refractory solid tumors; one patient with neuroblastoma, one cycle at 20 mg/m^2, persistent bone marrow disease): resolution of the disease noted at baseline
- change in plasma VEGF concentration (VEGF): increased significantly
- change in totals and subsets of CECs and CEPs [4]: did not reliably change
- incidence of grade 3 or symptomatic congestive heart failure (adult patients; adult patients treated with sunitinib, ref [30]-[32]): 7-15%
- cases requiring dose reductions (adult patients; adults treated with sunitinib, ref [5], [6], [24], [25]): 11-50%
- change in plasma SDF-1 concentration [5]: did not change in a consistent manner
- cardiac toxicity ([6]; Patient 2, 15 mg/m^2, Day 28, Cycle 1, doxorubicin 367 mg/m^2, prior cardiac radiation): Symptomatic diastolic and systolic dysfunction; transient ischemic changes on EKG
- maximum tolerated dose ([6]; children without prior anthracycline exposure or radiation therapy involving a cardiac field): 15 mg/m^2
- ALT elevation G1 ([6]; human, in vivo): 11%
- Hypophosphatemia G1 ([6]; human, in vivo): 11%
- Leukopenia G1 ([6]; human, in vivo): 40%
- Thrombocytopenia G1 ([6]; human, in vivo): 40%
- ALT elevation G1 ([6]; human, in vivo, 1 cycle): 17%
- AST elevation G1 ([6]; human, in vivo, 1 cycle): 33%
- Anemia G1 ([6]; human, in vivo, 1 cycle): 25%
- Anorexia G2 ([6]; human, in vivo, 1 cycle): 17%
- Diarrhea G1 ([6]; human, in vivo, 1 cycle): 33%
- Hypoalbuminemia G1 ([6]; human, in vivo, 1 cycle): 25%
- Hypocalcemia G1 ([6]; human, in vivo, 1 cycle): 25%
- patients who developed hypothyroidism (≤ grade 2) ([6]; human, in vivo, 1 cycle): Three of 23
- ALT elevation G2 ([6]; human, in vivo, 42 days): 11%
- Anorexia G1 ([6]; human, in vivo, 42 days): 11%
- CNS hemorrhage G4 ([6]; human, in vivo, 42 days): 11%
- Constipation G1 ([6]; human, in vivo, 42 days): 11%
- Cranial neuropathy G4 ([6]; human, in vivo, 42 days): 11%
- Decreased serum bicarbonate G1 ([6]; human, in vivo, 42 days): 11%
- Dehydration G1 ([6]; human, in vivo, 42 days): 11%
- Diarrhea G1 ([6]; human, in vivo, 42 days): 11%
- Diarrhea G2 ([6]; human, in vivo, 42 days): 11%
- Epistaxis G1 ([6]; human, in vivo, 42 days): 11%
- Eye swelling G1 ([6]; human, in vivo, 42 days): 11%
- Headache G1 ([6]; human, in vivo, 42 days): 11%
- Hypernatremia G1 ([6]; human, in vivo, 42 days): 11%
- Hypertension G1 ([6]; human, in vivo, 42 days): 11%
- Hyperuricemia G1 ([6]; human, in vivo, 42 days): 11%
- Hyperuricemia G4 ([6]; human, in vivo, 42 days): 11%
- Hypoalbuminemia G1 ([6]; human, in vivo, 42 days): 11%
- Hypomagnesemia G1 ([6]; human, in vivo, 42 days): 11%
- Hypothyroidism G1 ([6]; human, in vivo, 42 days): 11%
- Left ventricular systolic dysfunction G2 ([6]; human, in vivo, 42 days): 17%
- Leukopenia G1 ([6]; human, in vivo, 42 days): 33%
- Leukopenia G2 ([6]; human, in vivo, 42 days): 17%
- Leukopenia G3 ([6]; human, in vivo, 42 days): 25%
- Lipase elevation G1 ([6]; human, in vivo, 42 days): 11%
- Lymphopenia G1 ([6]; human, in vivo, 42 days): 17%
- Lymphopenia G3 ([6]; human, in vivo, 42 days): 17%
- Muscle or joint pain G1 ([6]; human, in vivo, 42 days): 11%
- Muscle or joint pain G2 ([6]; human, in vivo, 42 days): 11%
- Neutropenia G2 ([6]; human, in vivo, 42 days): 17%
- Neutropenia G3 ([6]; human, in vivo, 42 days): 33%
- Thrombocytopenia G1 ([6]; human, in vivo, 42 days): 42%
- Thrombocytopenia G2 ([6]; human, in vivo, 42 days): 25%
- Weight loss G2 ([6]; human, in vivo, 42 days): 17%
- cardiac dysfunction ([6]; in vivo): No cardiac dysfunction was observed
- changes in hair color and texture ([6]; in vivo): not reported
- growth plate thickening ([6]; in vivo): did not demonstrate any growth plate thickening
- hypertension ([6]; in vivo): rarely reported
- patients who developed hypothyroidism (≤ grade 2) ([6]; in vivo): Two patients
- maximum tolerated dose ([6]; patients without prior anthracycline or cardiac radiation exposure, once daily for 28 days followed by a 14-day break): 15 mg/m^2/day
- decrease in AMC, range (monocyte counts; [10]): 18 to 1253 µL⁻¹
- median decrease in AMC (monocyte counts; [10]): 117 µL⁻¹
- patients with decreases in absolute monocyte count (AMC) (monocyte counts; 18 patients with paired day 1 and day 28 counts): 17
- change in plasma placental growth factor concentration [7]: increased significantly
- Css, Max ([8]; 15 mg/m^2 dose level): 57.9 ng/mL
- Css, Median ([8]; 15 mg/m^2 dose level): 28.0 ng/mL
- Css, Min ([8]; 15 mg/m^2 dose level): 13.2 ng/mL
- Css, Max ([8]; 20 mg/m^2 dose level): 65.0 ng/mL
- Css, Median ([8]; 20 mg/m^2 dose level): 36.5 ng/mL
- Css, Min ([8]; 20 mg/m^2 dose level): 28.2 ng/mL
- Day 21 Css sunitinib ([8]; Patient 1 with cardiac toxicity, 20 mg/m^2): 40 ng/mL
- Day 21 Css sunitinib ([8]; Patient 2 with cardiac toxicity, 15 mg/m^2): 18 ng/mL
- steady state plasma concentrations reached by ([8]; once daily oral dosing, cycle 1): ≤ 7 days
